Test results published in patent US9828350B2, “5,6-dihydro-2H-[1,4]oxazin-3-yl-amine derivatives useful as inhibitors of beta-secretase (BACE)” (Janssen Pharmaceutica NV, priority 2010, dated 2017).

What was measured:
[1] = system: Abeta total; assay: Cellular αLisa assay in SKNBE2 cells, Abeta total; assay type: cell-based, human; settings: incubated for 18 hours; for IC50: Homo sapiens, SKNBE2, 18 h, read-out: Cellular αLisa assay in SKNBE2 cells Abetatotal pIC50 (converted)
Protocol: (§1) Cellular αLisa Assay in SKNBE2 Cells
(§2) In two αLisa assays the levels of Abeta total and Abeta 1-42 produced and secreted into the medium of human neuroblastoma SKNBE2 cells are quantified. The assay is based on the human neuroblastoma SKNBE2 expressing the wild type Amyloid Precursor Protein (hAPP695). The compounds are diluted and added to these cells, incubated for 18 hours and then measurements of Abeta 1-42 and Abeta total are taken. Abeta total and Abeta 1-42 are measured by sandwich αLisa. αLisa is a sandwich assay using biotinylated antibody AbN/25 attached to streptavidin coated beads and antibody Ab4G8 or cAb42/26 conjugated acceptor beads for the detection of Abeta total and Abeta 1-42 respectively. In the presence of Abeta total or Abeta 1-42, the beads come into close proximity. The excitation of the donor beads provokes the release of singlet oxygen molecules that trigger a cascade of energy transfer in the acceptor beads, resulting in light emission. Light emission is measured after 1 hour incubation (excitation at […] and emission at 615 nm).

[2] = target: recombinant BACE1 protein (Homo sapiens, UniProt P56817); assay: Biochemical FRET based assay; settings: recombinant BACE1 1 μg/ml, 120 minutes at room temperature, pH 5.0; for IC50: read-out: Biochemical FRET based assay pIC50 (converted)
From the text: Biochemical FRET Based Assay
This assay is a Fluorescence Resonance Energy Transfer Assay (FRET) based assay. The substrate for this assay is an APP derived 13 amino acids peptide that contains the ‘Swedish’ Lys-Met/Asn-Leu mutation of the amyloid precursor protein (APP) beta-secretase cleavage site. This substrate also contains two fluorophores: (7-methoxycoumarin-4-yl) acetic acid (Mca) is a fluorescent donor with excitation wavelength at 320 nm and emission at 405 nm and 2,4-Dinitrophenyl (Dnp) is a proprietary quencher acceptor. […] Upon cleavage by BACE1, the fluorophore Mca is separated from the quenching group Dnp, restoring the full fluorescence yield of the donor. The increase in fluorescence is linearly related to the rate of proteolysis.
Briefly in a 384-well format recombinant BACE1 protein in a final concentration of 1 μg/ml is incubated for 120 minutes at room temperature with […] substrate in incubation buffer (40 mM Citrate buffer pH 5.0, 0.04% PEG, 4% DMSO) in the absence or presence of compound. Next the amount of proteolysis is directly measured by fluorescence measurement at T=0 and T=120 (excitation at 320 nm and emission at 405 nm). Results are expressed in RFU (Relative Fluorescence Units), as difference between T120 and TO.

[3] = system: Abeta 1-42; assay: Cellular αLisa assay in SKNBE2 cells, Abeta 1-42; assay type: cell-based, human; settings: incubated for 18 hours; for IC50: Homo sapiens, SKNBE2, 18 h, read-out: Cellular αLisa assay in SKNBE2 cells Abeta 42 pIC50 (converted)
Protocol: as §1, §2

recombinant BACE1 protein, sequence (P56817 46-501): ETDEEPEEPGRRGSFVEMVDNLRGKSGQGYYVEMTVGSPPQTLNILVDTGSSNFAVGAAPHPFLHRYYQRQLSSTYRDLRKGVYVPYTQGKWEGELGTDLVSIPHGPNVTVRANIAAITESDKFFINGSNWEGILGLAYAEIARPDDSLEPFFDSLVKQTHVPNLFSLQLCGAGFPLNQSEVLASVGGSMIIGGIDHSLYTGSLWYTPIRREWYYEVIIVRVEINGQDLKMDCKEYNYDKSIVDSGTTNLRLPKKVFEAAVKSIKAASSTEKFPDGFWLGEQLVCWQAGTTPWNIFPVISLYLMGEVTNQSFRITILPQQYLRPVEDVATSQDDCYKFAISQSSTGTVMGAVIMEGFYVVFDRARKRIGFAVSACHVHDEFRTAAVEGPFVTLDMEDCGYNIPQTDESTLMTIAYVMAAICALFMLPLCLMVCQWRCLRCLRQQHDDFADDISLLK

| Cellular αLisa assay in SKNBE2 cells Abetatotal pIC50 [1] | Biochemical FRET based assay pIC50 [2] | Cellular αLisa assay in SKNBE2 cells Abeta 42 pIC50 [3] | IC50 [1] [µM] | IC50 [2] [µM] | IC50 [3] [µM] | SMILES |
| --- | --- | --- | --- | --- | --- | --- |
| 6.83 | 5.95 | 6.79 | – | – | – | COc1cccc(-c2cc([C@]3(C)COCC(N)=N3)c(F)cc2F)c1 [Compound 47] |
| 5.9 | 5.74 | 5.85 | – | – | – | CC1(c2cccc(NC(=O)c3ccc(C#N)cc3)c2)COCC(N)=N1.Cl (racemic) [Compound 42] |
| 6.65 | 5.41 | 6.68 | – | – | – | CC1(c2cc(-c3cncnc3)ccc2F)COCC(N)=N1 (single isomer, unassigned) [Compound 54] |
| 6.17 | 6.17 | 5.98 | – | – | – | CC#Cc1cncc(-c2ccc(F)c(C3(C4CC4)N=C(N)COC3F)c2)c1 (stereo not drawn) [Compound 292] |
| 6.29 | 6.01 | 6.29 | – | – | – | C[C@@]1(c2cc(-c3cncnc3)c(F)cc2F)N=C(N)CO[C@H]1F (racemic) [Compound 83, trans-rac-5-(2,4-difluoro-5-pyrimidin-5-ylphenyl)-6-fluoro-5-methyl-5,6-dihydro-2H-1,4-oxazin-3-amine] |
| – | – | – | 0.977 | 0.891 | 1.02 | NC1=N[C@@](c2cccc(-c3cncnc3)c2)(C2CC2)[C@@H](F)OC1 [Compound 257] |
| – | – | – | 2.82 | 0.661 | 3.24 | NC1=N[C@@](c2cc(-c3cncnc3)ccc2F)(C2CC2)[C@](F)(C(F)(F)F)OC1 [Compound 312] |
| – | – | – | 0.0135 | 0.0457 | 0.0138 | COc1cnc(C(=O)Nc2ccc(F)c([C@@]3(C4CC4)N=C(N)CO[C@H]3C(F)(F)F)c2)cn1 [Compound 230] |
| 5.58 | 5.05 | 5.54 | – | – | – | CC1(c2cc(-c3ccc(Cl)cc3)c(F)cc2F)COCC(N)=N1 (stereo not drawn) [Compound 34] |
| – | – | – | 0.145 | 0.0813 | 0.17 | Cc1cc(Cl)cnc1C(=O)Nc1ccc(F)c([C@@]2(C3CC3)N=C(N)CO[C@@H]2F)c1 [Compound 315] |
| – | – | – | 0.0117 | 0.0525 | 0.012 | CC1(c2cc(NC(=O)c3ncc(Cl)cc3F)ccc2F)N=C(N)COC1F (stereo not drawn) [Compound 77] |
| 8.05 | – | 8.01 | – | 0.0407 | – | CC1(c2cccc(NC(=O)c3ncc(Cl)cc3F)c2)N=C(N)COC1F (single isomer, unassigned) [Compound 163] |
| 7.04 | 6.35 | 7.06 | – | – | – | C[C@@]1(c2cc(NC(=O)c3ccc(Cl)cc3F)ccc2F)COCC(N)=N1.Cl [Compound 68] |
| – | – | – | 0.0282 | 0.0447 | 0.0339 | COc1cnc(C(=O)Nc2ccc(F)c([C@@]3(C)N=C(N)CO[C@@]3(F)C(F)(F)F)c2)cn1 [Compound 180] |
| – | – | – | 0.204 | 4.17 | 0.195 | C[C@@]1(c2cccc(-c3cncnc3)c2)COC2(CC2)C(N)=N1 [Compound 74] |
| 5.46 | – | 5.04 | – | 18.6 | – | Cc1ccc(C(=O)Nc2cccc(C3(C)N=C(N)COC3(F)C(F)(F)F)c2)nc1 (single isomer, unassigned) [Compound 191] |

| Cellular αLisa assay in SKNBE2 cells Abetatotal pIC50 [1] | Biochemical FRET based assay pIC50 [2] | Cellular αLisa assay in SKNBE2 cells Abeta 42 pIC50 [3] | IC50 [1] [µM] | IC50 [2] [µM] | IC50 [3] [µM] | SMILES |
| --- | --- | --- | --- | --- | --- | --- |
| – | – | – | 0.2 | 1.1 | 0.2 | C[C@@]1(c2cc(-c3cncnc3)c(F)cc2F)COC2(CC2)C(N)=N1 [Compound 150] |
| 5.25 | – | 5.2 | – | > 30.2 | – | CC1(c2cccc(NC(=O)c3ccncn3)c2)N=C(N)COC1(F)C(F)(F)F (single isomer, unassigned) [Compound 190] |
| 5.82 | – | 5.8 | – | 9.33 | – | COc1cncc(-c2cccc(C3(C)N=C(N)COC3C(F)(F)F)c2)c1 (single isomer, unassigned) [Compound 104] |
| 7.37 | 6.41 | 7.36 | – | – | – | CC1(c2cccc(NC(=O)c3ccc(C#N)cn3)c2)COCC(N)=N1 (racemic) [Compound 64] |
| 6.87 | – | 6.86 | – | 6.17 | – | CC1(c2cccc(-c3cncnc3)c2)N=C(N)COC1F (single isomer, unassigned) [Compound 97] |
| – | – | – | 0.12 | 1.29 | 0.12 | COc1cncc(-c2cccc(C3(C)N=C(N)COC3C(F)(F)F)c2)c1 (stereo not drawn) [Compound 108] |
| 6.93 | – | 6.91 | – | 0.437 | – | CC1(c2cccc(NC(=O)c3ccncn3)c2)N=C(N)COC1(F)C(F)(F)F (single isomer, unassigned) [Compound 188] |
| 5.06 | – | 5.18 | – | > 30.2 | – | CC1(c2cccc(-c3cncnc3)c2)N=C(N)COC1(F)C(F)(F)F (single isomer, unassigned) [Compound 116] |
| 6.95 | – | 6.92 | – | > 30.2 | – | NC1=NC(c2cccc(NC(=O)c3ccc(Cl)cn3)c2)(C2CC2)COC1 (single isomer, unassigned) [Compound 196] |
| – | – | – | 0.129 | 1.12 | 0.135 | CC1(c2cccc(-c3cncc(C#N)c3)c2)N=C(N)COC1C(F)(F)F (stereo not drawn) [Compound 171] |
| – | – | – | 0.537 | 0.479 | 0.537 | COc1cnc(C(=O)Nc2cccc([C@@]3(C4CC4)N=C(N)CO[C@]3(F)C(F)(F)F)c2)cn1 [Compound 202] |
| 8.02 | – | 8.01 | – | 0.0537 | – | NC1=NC(c2cccc(NC(=O)c3ccc(Cl)cn3)c2)(C2CC2)COC1 (single isomer, unassigned) [Compound 195] |
| – | – | – | 0.339 | 0.589 | 0.363 | COc1ccc(C(=O)Nc2ccc(F)c([C@@]3(C)N=C(N)CO[C@]3(F)C(F)(F)F)c2)nc1 [Compound 304] |
| – | – | – | 0.12 | 0.324 | 0.126 | C[C@]1(c2cccc(NC(=O)c3ccc(C#N)cn3)c2)N=C(N)CO[C@@]1(F)C(F)(F)F [Compound 241] |
| – | – | – | 0.708 | 0.11 | 0.794 | N#Cc1ccc(C(=O)Nc2ccc(F)c([C@@]3(C4CC4)N=C(N)CO[C@@H]3F)c2)nc1 [Compound 214, (2R,3R)—N-[3-(5-amino-3-cyclopropyl-2-fluoro-3,6-dihydro-2H-1,4-oxazin-3-yl)-4-fluorophenyl]-5-cyanopyridine-2-carboxamide] |
| <5 | – | <5 | – | > 30.2 | – | Cc1ccc(C(=O)Nc2cccc(C3(C)N=C(N)COC3(F)C(F)(F)F)c2)nc1 (single isomer, unassigned) [Compound 192] |
